Common to all, as to format: cell-based
Assay [1] concerns NCI-H226 cells. The experiment in a line: NCI-H226 proliferation assay (in house). Particulars: Homo sapiens, 120 h, 5 days, Cell TiterGlo, 20-point 1:2 dilution from 20 μM. The gist of the method:
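Viability by CellTiter-Glo luminescence after 5-day compound exposure at 37 °C, 5% CO2. Compounds added 24 h post-seeding (500 cells/well, RPMI 1640 with 10% FBS) as 20-point, 2-fold series from 20 μM final, triplicate wells.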
(In general: ATP-based viability assays read luminescence as a measure of living cells.)

Assay [2] deals with NCI-H226 cells. The experiment in a line: NCI-H226 proliferation assay (Wuxi AppTec). The following applies: Homo sapiens, 168 h, 7 days, CellTiter-Glo, top dose 10, 3-fold dilution, 9 doses. As to the method: […] Proliferation Assay (From Wuxi AppTec CO.):
Day −1: Seeding cells • (1) Equilibrate cell culture medium to 37° C. • (2) Remove and discard the culture medium. • (3) Briefly rinse the cell layer with PBS to remove all traces of serum that contains […]. • (4) Add 2-3 mL of Trypsin-EDTA solution to flask and observe cells under an inverted microscope until cell layer is dispersed. • (5) Add 6-8 mL of growth medium to terminate the digestion of Trypsin/EDTA. • (6) Centrifuge the mixture (Trypsin EDTA and the growth medium) at 1000 rpm for 5 mins. • (7) Discard the supernatant, suspend the cell precipitation with the fresh growth medium, then take 1 mL the cell suspension to count cells with Vi-cell XR cell viability analyzer. • (8) Adjust the cell density to 500 cells/well for 384-well plates. • (9) Add 50 µL/well volume cell suspension to the assay plate. • (10) Add […] media to the control columns. • (11) Incubate the plate at 37° C., 5% CO2 for overnight. Day 0: Compounds treatment • (1) Add cpds to each well by Tecan HP D300E. The top dose is […], 3-fold dilution and 9 doses. DMSO final concentration will be normalized to 0.2%. • (2) Incubate the assay plate at 37° C., 5% CO2 for 7 days. Day 7: Plate read • (1) Equilibrate the assay plate to the room temperature for nearly 30 minutes. • (2) Add […] CellTiter-Glo reagent to each well and shake the plate for 1 min, incubate 10 min and keep them from light. • (3) Detect the plate by EnVision. Data analysis:
Max: Average of the DMSO group Min: Average of medium group.

Assay [3] concerns transcriptional activity of TEADs. The experiment in a line: TEAD reporter assay (MCF7 TEAD-LUC reporter cells). The following applies: Homo sapiens, 24 hours, BrightGlo luminescence. Put shortly: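 Luminescence (BrightGlo) was read after 24 h of compound treatment at 37 °C, 5 % CO2. Cells had been seeded at 5,000 per well in DMEM with 10 % FBS and insulin and rested 24 h first. Dosing used 20 points, 1:2 dilution from 20 μM final, triplicates.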

As to `C=CC(=O)N1CCN(c2nccnc2OC2CCC(C(F)(F)F)CC2)CC1` (stereo not drawn) [Example 94, 1-(4-(3-((4-(trifluoromethyl)cyclohexyl)oxy)pyrazin-2-yl)piperazin-1-yl)prop-2-en-1-one], the IC50 (in general, the concentration needed to halve the response being measured) came out at 0.018 µM in the assay on NCI-H226 cells [1], 0.017 µM in the assay on NCI-H226 cells [2] and 0.00084 µM in assay [3].

As for `C=CC(=O)N1CCN(c2nccnc2Nc2ccc(C#N)cc2)CC1` [Example 38, 4-((3-(4-acryloylpiperazin-1-yl)pyrazin-2-yl)amino)benzonitrile], in the assay on NCI-H226 cells [2], half-maximal inhibition (IC50) was put at 0.42 µM.

With `C=C(F)C(=O)N1CCN(c2nccnc2Oc2cnc(C(F)(F)F)nc2)CC1` [Example 88, 2-fluoro-1-(4-(3-((2-(trifluoromethyl)pyrimidin-5-yl)oxy)pyrazin-2-yl)piperazin-1-yl)prop-2-en-1-one], the results for the IC50 (in the assay with NCI-H226 cells [1]; with NCI-H226 cells [2]; in assay [3]) were 0.047 µM, 0.027 µM and 0.0019 µM, respectively.

`C=CC(=O)N1CCC(n2nccc2C(=O)c2ccc(C(F)(F)F)cc2)CC1` [Example 164, 1-(4-(5-(4-(trifluoromethyl)benzoyl)-1H-pyrazol-1-yl)piperidin-1-yl)prop-2-en-1-one]: the results for the IC50 (with NCI-H226 cells [2]; in assay [3]) were 0.045 µM and 0.0004 µM, respectively.

With `C=C(F)C(=O)N1CCN(c2nccnc2Oc2ccc(C(F)(F)F)nc2)CC1` [Example 78, 2-fluoro-1-(4-(3-((6-(trifluoromethyl)pyridin-3-yl)oxy)pyrazin-2-yl)piperazin-1-yl)prop-2-en-1-one], the IC50 came to 0.032 µM with NCI-H226 cells [1], 0.009 µM with NCI-H226 cells [2] and 0.0021 µM in assay [3].

Molecule `C=CC(=O)N1CCN(c2ccnnc2Nc2ccc(C(F)(F)F)cn2)CC1` [Example 120, 1-(4-(3-((5-(trifluoromethyl)pyridin-2-yl)amino)pyridazin-4-yl)piperazin-1-yl)prop-2-en-1-one] gave an IC50 with NCI-H226 cells [2] of 0.205 µM.

On to `C=CC(=O)N1CCC(O)(c2nccnc2Oc2ccc(C(F)(F)F)nc2)CC1` [Example 83, 1-(4-hydroxy-4-(3-((6-(trifluoromethyl)pyridin-3-yl)oxy)pyrazin-2-yl)piperidin-1-yl)prop-2-en-1-one], for which the half-maximal inhibitory concentration (IC50) with NCI-H226 cells [2] was 0.263 µM.

In the case of `C=CC(=O)N1CCN(c2nc(C)c(C)nc2Nc2ccc(C(F)(F)F)nc2)CC1` [Example 113, 1-(4-(5,6-dimethyl-3-((6-(trifluoromethyl)pyridin-3-yl)amino)pyrazin-2-yl)piperazin-1-yl)prop-2-en-1-one], the concentration for half-maximal inhibition (IC50) in the assay with NCI-H226 cells [1] stood at 0.04 µM; in the assay on NCI-H226 cells [2], 0.032 µM; in assay [3] it was 0.0027 µM.

In the case of `C=CC(=O)N1CC=C(c2cccnc2Oc2cnc(C(F)(F)F)nc2)CC1` [Example 157, 1-(2-((2-(trifluoromethyl)pyrimidin-5-yl)oxy)-3′,6′-dihydro-[3,4′-bipyridin]-1′(2′H)-yl)prop-2-en-1-one], the figures for the IC50 (in the assay with NCI-H226 cells [1]; in the assay on NCI-H226 cells [2]; in assay [3]) were 0.132 µM, 0.013 µM and 0.0016 µM, respectively.

For `C=CC(=O)N1CCN(c2nccnc2C(=O)c2ccc(C(F)(F)F)nc2)CC1` [Example 96, 1-(4-(3-(6-(trifluoromethyl)nicotinoyl)pyrazin-2-yl)piperazin-1-yl)prop-2-en-1-one], the values for the half-maximal inhibitory concentration (IC50) (with NCI-H226 cells [1]; in the assay with NCI-H226 cells [2]; in assay [3]) were 0.012 µM, 0.089 µM and 0.0036 µM, respectively.

`C=CC(=O)N1CCC(c2nccnc2Oc2cnc(C(F)(F)F)nc2)CC1` [Example 91, 1-(4-(3-((2-(trifluoromethyl)pyrimidin-5-yl)oxy)pyrazin-2-yl)piperidin-1-yl)prop-2-en-1-one]: the values for the half-maximal inhibitory concentration (IC50) in the assay on NCI-H226 cells [1] and in the assay with NCI-H226 cells [2] were 0.075 µM and 0.042 µM, respectively.

`C=CC(=O)N1CC=C(c2cnc(C)nc2Oc2ccc(C(F)(F)F)nc2)CC1` [Example 129, 1-(4-(2-methyl-4-((6-(trifluoromethyl)pyridin-3-yl)oxy)pyrimidin-5-yl)-3,6-dihydropyridin-1(2H)-yl)prop-2-en-1-one]: the 50% inhibitory concentration (IC50) in the assay with NCI-H226 cells [1] turned out to be 0.104 µM; with NCI-H226 cells [2] it was 0.137 µM; in assay [3], 0.0012 µM.

Regarding `C=CC(=O)N1CCN(c2nccnc2Nc2ccc(C(F)(F)F)c(OC)c2)CC1` [Example 37, 1-(4-(3-((3-methoxy-4-(trifluoromethyl)phenyl)amino)pyrazin-2-yl)piperazin-1-yl)prop-2-en-1-one], it took 0.078 µM to reach half-maximal inhibition in the assay on NCI-H226 cells [2] (IC50).

For the molecule `C=CC(=O)N1CC=C(c2nccnc2Nc2ccc(C(F)(F)F)cn2)CC1` [Example 43, 1-(4-(3-((5-(trifluoromethyl)pyridin-2-yl)amino)pyrazin-2-yl)-3,6-dihydropyridin-1(2H)-yl)prop-2-en-1-one], the IC50 in the assay with NCI-H226 cells [1] is 0.006 µM; with NCI-H226 cells [2], 0.011 µM; in assay [3], 0.001 µM.

In turn, `C=C(F)C(=O)N1CC=C(c2nccnc2Nc2ccc(OC(F)(F)F)nc2)CC1` [Example 58, 2-fluoro-1-(4-(3-((6-(trifluoromethoxy)pyridin-3-yl)amino)pyrazin-2-yl)-3,6-dihydropyridin-1(2H)-yl)prop-2-en-1-one] displayed an IC50 in the assay on NCI-H226 cells [2] of 0.283 µM.

Consider `C=C(F)C(=O)N1CCC(c2nccnc2Oc2cnc(C(F)(F)F)nc2)CC1` [Example 92, 2-fluoro-1-(4-(3-((2-(trifluoromethyl)pyrimidin-5-yl)oxy)pyrazin-2-yl)piperidin-1-yl)prop-2-en-1-one], for which the figures for the IC50 with NCI-H226 cells [1] and in the assay on NCI-H226 cells [2] were 5.64 µM and 1.12 µM, respectively.

As to `C=CC(=O)N1CC=C(c2nccnc2Nc2ccc(OC(F)(F)F)nc2)CC1` [Example 57, 1-(4-(3-((6-(trifluoromethoxy)pyridin-3-yl)amino)pyrazin-2-yl)-3,6-dihydropyridin-1(2H)-yl)prop-2-en-1-one], the concentration for half-maximal inhibition (IC50) in the assay with NCI-H226 cells [2] amounted to 0.036 µM.

Take `C=C(F)C(=O)N1CCC(c2nccnc2Oc2ccc(C(F)(F)F)cn2)CC1` [Example 76, 2-fluoro-1-(4-(3-((5-(trifluoromethyl)pyridin-2-yl)oxy)pyrazin-2-yl)piperidin-1-yl)prop-2-en-1-one]: the IC50 in the assay on NCI-H226 cells [1] stood at 0.424 µM; in the assay with NCI-H226 cells [2] it was 0.104 µM.

Take `C=CC(=O)N1CC=C(c2cccnc2Nc2ccc(OC(F)(F)F)nc2)CC1` [Example 147, 1-(2-((6-(trifluoromethoxy)pyridin-3-yl)amino)-3′,6′-dihydro-[3,4′-bipyridin]-1′(2′H)-yl)prop-2-en-1-one]: the IC50 in the assay with NCI-H226 cells [2] amounted to 0.149 µM; in assay [3] it was 0.0023 µM.

In the assay with NCI-H226 cells [2], `C=CC(=O)N1CCN(c2ccnnc2Nc2ccc(C(F)(F)F)nc2)CC1` [Example 121, 1-(4-(3-((6-(trifluoromethyl)pyridin-3-yl)amino)pyridazin-4-yl)piperazin-1-yl)prop-2-en-1-one] showed an IC50 of 1.4 µM.

`C=C(F)C(=O)N1CC=C(c2nccnc2Nc2cnc(C(F)(F)F)nc2)CC1` [Example 60, 2-fluoro-1-(4-(3-((2-(trifluoromethyl)pyrimidin-5-yl)amino)pyrazin-2-yl)-3,6-dihydropyridin-1(2H)-yl)prop-2-en-1-one] yielded an IC50 in the assay on NCI-H226 cells [2] of 1.31 µM.

On to `C=C(F)C(=O)N1CCC(c2nc(C)cnc2Oc2ccc(C(F)(F)F)nc2)CC1` [Example 115, 2-fluoro-1-(4-(6-methyl-3-((6-(trifluoromethyl)pyridin-3-yl)oxy)pyrazin-2-yl)piperidin-1-yl)prop-2-en-1-one], for which the IC50 in the assay with NCI-H226 cells [1] is 0.074 µM; in the assay on NCI-H226 cells [2], 0.041 µM.

As for `C=CC(=O)N1CC=C(c2nccnc2Nc2cnc(C(F)(F)F)nc2)CC1` [Example 59, 1-(4-(3-((2-(trifluoromethyl)pyrimidin-5-yl)amino)pyrazin-2-yl)-3,6-dihydropyridin-1(2H)-yl)prop-2-en-1-one], in the assay with NCI-H226 cells [2], the midpoint of inhibition, the IC50, lay at 0.1 µM.
